Test results: patent publication US20250282827A1, “LIPIDATED POLYMYXIN ANALOGUES” (priority 2021, published 2025)
In brackets after ≈: the same amount, converted by molar mass. Read-outs that look alike come from different tables or passages of the source. Positions of bridges follow the written chain, without caps; N, C: chain ends. Non-standard residues stand in square brackets, D forms with d. Residues, ends and D or L forms follow the SMILES beside them. *: point of attachment. CH2CH2OBz(4-tBu) = CC(C)(C)c1ccc(C(=O)OCC*)cc1; Ethyl(2-decanoyloxy) = CCCCCCCCCC(=O)OCC*; Ethyl(2-butanoyloxy) = CCCC(=O)OCC*; Ethyl(2-propionyloxy) = CCC(=O)OCC*; Ethyl(2-OPiv) = CC(C)(C)C(=O)OCC*; Ethyl(2-OBz) = O=C(OCC*)c1ccccc1; hCys = N[C@@H](CCS)C(=O)O; Octanoyl = CCCCCCCC(=O)*; Dab = NCC[C@H](N)C(=O)O; Mpa = O=C(O)CCS

What was measured:
E. coli ATCC 25922 = assay type: cell-based, Escherichia coli
Source text: (§1) All 81 compounds prepared in Examples 2 and 3 underwent screening against a panel of Gram-negative bacterium to assess their ability to inhibit bacterial growth. […] The median value is presented.

A. baumannii ATCC 19606 = assay type: cell-based, Acinetobacter baumannii
Source text: as §1

P. aeruginosa ATCC 27853 = assay type: cell-based, Pseudomonas aeruginosa
Source text: as §1

K. pneumoniae ATCC 33495 = assay type: cell-based, Klebsiella pneumoniae
Source text: as §1

[1] = tested on: K. pneumoniae ATCC 700603; assay type: cell-based, Klebsiella pneumoniae
Source text: as §1

[2] = tested on: K. pneumoniae ATCC MS6671; assay type: cell-based, Klebsiella pneumoniae
Source text: as §1

E. coli ATCC MS8345 = assay type: cell-based, Escherichia coli
Source text: as §1
Expansion of the polymyxin macrocycle by substituting […]) offered little advantage in antimicrobial activity but was generally well tolerated although for A. baumanni and P. aeruginosa this was detrimental.

| SMILES | MIC E. coli ATCC 25922 (E. coli ATCC 25922; ATCC 25922) | MIC A. baumannii ATCC 19606 (A. baumannii ATCC 19606; ATCC 19606) | MIC P. aeruginosa ATCC 27853 (P. aeruginosa ATCC 27853; ATCC 27853) | MIC K. pneumoniae ATCC 33495 (K. pneumoniae ATCC 33495; ATCC 33495) | MIC K. pneumoniae ATCC 700603 ([1]; ATCC 700603) | MIC K. pneumoniae ATCC MS6671 ([2]; ATCC MS6671) | MIC E. coli ATCC MS8345 (E. coli ATCC MS8345; ATCC MS8345) | MIC E. coli ATCC 25922 (E. coli ATCC 25922; median of triplicate) | MIC A. baumannii ATCC 19606 (A. baumannii ATCC 19606; median of triplicate) | MIC P. aeruginosa ATCC 27853 (P. aeruginosa ATCC 27853; median of triplicate) | MIC K. pneumoniae ATCC 33495 (K. pneumoniae ATCC 33495; median of triplicate) | MIC K. pneumoniae ATCC 700603 ([1]; median of triplicate) | MIC K. pneumoniae ATCC MS6671 ([2]; median of triplicate) | MIC E. coli ATCC MS8345 (E. coli ATCC MS8345; colistin-resistant strain, median of triplicate) | activity against E. coli (MIC) (E. coli ATCC 25922; ATCC 25922) |
| --- | --- | --- | --- | --- | --- | --- | --- | --- | --- | --- | --- | --- | --- | --- | --- |
| CCC(=O)OCCSC[C@H](N)C(=O)N[C@@H](CCN)C(=O)N[C@H](C(=O)N[C@@H](CCN)C(=O)N[C@H]1CCCCNC(=O)[C@H]([C@@H](C)O)NC(=O)[C@H](CCN)NC(=O)[C@H](CCN)NC(=O)[C@H](CC(C)C)NC(=O)[C@@H](Cc2ccccc2)NC(=O)[C@H](CCN)NC1=O)[C@@H](C)O [Compound 23] (H-C(Ethyl(2-propionyloxy))[Dab]T[Dab]K[Dab][dF]L[Dab][Dab]T; lactam 5-C) | 4 µg/mL (≈ 3.09 µM) | >32 µg/mL | >32 µg/mL | 4 µg/mL (≈ 3.09 µM) | >32 µg/mL | >32 µg/mL | >32 µg/mL |  |  |  |  |  |  |  |  |
| CCCC(=O)OCCSC[C@H](N)C(=O)N[C@@H](CCN)C(=O)N[C@H](C(=O)N[C@@H](CCN)C(=O)N[C@H]1CCCCNC(=O)[C@H]([C@@H](C)O)NC(=O)[C@H](CCN)NC(=O)[C@H](CCN)NC(=O)[C@H](CC(C)C)NC(=O)[C@@H](Cc2ccccc2)NC(=O)[C@H](CCN)NC1=O)[C@@H](C)O [Compound 24] (H-C(Ethyl(2-butanoyloxy))[Dab]T[Dab]K[Dab][dF]L[Dab][Dab]T; lactam 5-C) | 2 µg/mL (≈ 1.53 µM) | >32 µg/mL | >32 µg/mL | 1 µg/mL (≈ 0.764 µM) |  | >32 µg/mL | >32 µg/mL |  |  |  |  |  |  |  |  |
| CCCCCCCCCC(=O)OCCSC[C@H](N)C(=O)N[C@@H](CCN)C(=O)N[C@H](C(=O)N[C@@H](CCN)C(=O)N[C@H]1CCCCNC(=O)[C@H]([C@@H](C)O)NC(=O)[C@H](CCN)NC(=O)[C@H](CCN)NC(=O)[C@H](CC(C)C)NC(=O)[C@@H](Cc2ccccc2)NC(=O)[C@H](CCN)NC1=O)[C@@H](C)O [Compound 25] (H-C(Ethyl(2-decanoyloxy))[Dab]T[Dab]K[Dab][dF]L[Dab][Dab]T; lactam 5-C) | 2 µg/mL (≈ 1.44 µM) | >32 µg/mL | 0.5 µg/mL (≈ 0.359 µM) | 0.5 µg/mL (≈ 0.359 µM) | 2 µg/mL (≈ 1.44 µM) | >32 µg/mL | 16 to 32 µg/mL |  |  |  |  |  |  |  |  |
| CC(C)C[C@@H]1NC(=O)[C@@H](Cc2ccccc2)NC(=O)[C@H](CCN)NC(=O)[C@@H](NC(=O)[C@H](CCN)NC(=O)[C@@H](NC(=O)[C@H](CCN)NC(=O)[C@@H](N)CSCCOC(=O)C(C)(C)C)[C@@H](C)O)CCCCNC(=O)[C@H]([C@@H](C)O)NC(=O)[C@H](CCN)NC(=O)[C@H](CCN)NC1=O [Compound 26] (H-C(Ethyl(2-OPiv))[Dab]T[Dab]K[Dab][dF]L[Dab][Dab]T; lactam 5-C) | 1 µg/mL (≈ 0.756 µM) | >32 µg/mL | >32 µg/mL | 0.5 µg/mL (≈ 0.378 µM) | 16 µg/mL (≈ 12.1 µM) | >32 µg/mL | >32 µg/mL |  |  |  |  |  |  |  |  |
| CC(C)C[C@@H]1NC(=O)[C@@H](Cc2ccccc2)NC(=O)[C@H](CCN)NC(=O)[C@@H](NC(=O)[C@H](CCN)NC(=O)[C@@H](NC(=O)[C@H](CCN)NC(=O)[C@@H](N)CSCCOC(=O)c2ccccc2)[C@@H](C)O)CCCCNC(=O)[C@H]([C@@H](C)O)NC(=O)[C@H](CCN)NC(=O)[C@H](CCN)NC1=O [Compound 27] (H-C(Ethyl(2-OBz))[Dab]T[Dab]K[Dab][dF]L[Dab][Dab]T; lactam 5-C) |  |  |  |  |  |  |  | 1 µg/mL (≈ 0.745 µM) | >32 µg/mL | >32 µg/mL | 0.5 µg/mL (≈ 0.372 µM) | 2 to 4 µg/mL | >32 µg/mL | >32 µg/mL |  |
| CC(C)C[C@@H]1NC(=O)[C@@H](Cc2ccccc2)NC(=O)[C@H](CCN)NC(=O)[C@@H](NC(=O)[C@H](CCN)NC(=O)[C@@H](NC(=O)[C@H](CCN)NC(=O)[C@@H](N)CSCCOC(=O)c2ccc(C(C)(C)C)cc2)[C@@H](C)O)CCCCNC(=O)[C@H]([C@@H](C)O)NC(=O)[C@H](CCN)NC(=O)[C@H](CCN)NC1=O [Compound 28] (H-C(CH2CH2OBz(4-tBu))[Dab]T[Dab]K[Dab][dF]L[Dab][Dab]T; lactam 5-C) | 2 µg/mL (≈ 1.43 µM) | 4 µg/mL (≈ 2.86 µM) | 1 µg/mL (≈ 0.715 µM) | 0.5 µg/mL (≈ 0.357 µM) | 4 µg/mL (≈ 2.86 µM) | >32 µg/mL | 32 µg/mL (≈ 22.9 µM) |  |  |  |  |  |  |  |  |
| CCCC(=O)OCCSC[C@H](N)C(=O)N[C@@H](CCN)C(=O)N[C@H](C(=O)N[C@@H](CCN)C(=O)N[C@H]1CCNC(=O)[C@H]([C@@H](C)O)NC(=O)[C@H](CCN)NC(=O)[C@H](CCN)NC(=O)[C@H](CC(C)C)NC(=O)[C@@H](Cc2ccccc2)NC(=O)[C@H](CCN)NC1=O)[C@@H](C)O [Compound 30] (H-C(Ethyl(2-butanoyloxy))[Dab]T[Dab][Dab][Dab][dF]L[Dab][Dab]T; lactam 5-C) | 0.5 µg/mL (≈ 0.39 µM) | 2 µg/mL (≈ 1.56 µM) | 2 µg/mL (≈ 1.56 µM) | 0.125 µg/mL (≈ 0.0976 µM) | 0.5 µg/mL (≈ 0.39 µM) | >32 µg/mL | 32 µg/mL (≈ 25 µM) |  |  |  |  |  |  |  |  |
| CCCCCCCCCC(=O)OCCSC[C@H](N)C(=O)N[C@@H](CCN)C(=O)N[C@H](C(=O)N[C@@H](CCN)C(=O)N[C@H]1CCNC(=O)[C@H]([C@@H](C)O)NC(=O)[C@H](CCN)NC(=O)[C@H](CCN)NC(=O)[C@H](CC(C)C)NC(=O)[C@@H](Cc2ccccc2)NC(=O)[C@H](CCN)NC1=O)[C@@H](C)O [Compound 31] (H-C(Ethyl(2-decanoyloxy))[Dab]T[Dab][Dab][Dab][dF]L[Dab][Dab]T; lactam 5-C) | 2 µg/mL (≈ 1.47 µM) | 1 µg/mL (≈ 0.733 µM) | 1 µg/mL (≈ 0.733 µM) | 0.5 µg/mL (≈ 0.366 µM) | 4 µg/mL (≈ 2.93 µM) | >32 µg/mL | 2 to 4 µg/mL |  |  |  |  |  |  |  |  |
| CCC(=O)OCCSC[C@@H](N)C(=O)N[C@@H](CCN)C(=O)N[C@H](C(=O)N[C@@H](CCN)C(=O)N[C@H]1CCNC(=O)[C@H]([C@@H](C)O)NC(=O)[C@H](CCN)NC(=O)[C@H](CCN)NC(=O)[C@H](CC(C)C)NC(=O)[C@@H](Cc2ccccc2)NC(=O)[C@H](CCN)NC1=O)[C@@H](C)O [Compound 58] (H-[dC](Ethyl(2-propionyloxy))[Dab]T[Dab][Dab][Dab][dF]L[Dab][Dab]T; lactam 5-C) | 2 µg/mL (≈ 1.58 µM) | >32 µg/mL | 2 µg/mL (≈ 1.58 µM) | 2 µg/mL (≈ 1.58 µM) | 4 µg/mL (≈ 3.16 µM) | >32 µg/mL |  |  |  |  |  |  |  |  |  |
| CCC(=O)OCCSCCC(=O)N[C@H](C(=O)N[C@H](CO)C(=O)N[C@H]1CCNC(=O)[C@H]([C@@H](C)O)NC(=O)[C@H](CCN)NC(=O)[C@H](CCN)NC(=O)[C@H](CC(C)C)NC(=O)[C@@H](Cc2ccccc2)NC(=O)[C@H](CCN)NC1=O)[C@@H](C)O [Compound 87] ([Mpa](Ethyl(2-propionyloxy))T[dS][Dab][Dab][dF]L[Dab][Dab]T; lactam 4-C) | 16 µg/mL (≈ 14.1 µM) |  |  |  |  |  |  |  |  |  |  |  |  |  |  |
| CCC(=O)OCCSCC[C@H](N)C(=O)N[C@H](C(=O)N[C@H](CO)C(=O)N[C@H]1CCNC(=O)[C@H]([C@@H](C)O)NC(=O)[C@H](CCN)NC(=O)[C@H](CCN)NC(=O)[C@H](CC(C)C)NC(=O)[C@@H](Cc2ccccc2)NC(=O)[C@H](CCN)NC1=O)[C@@H](C)O [Compound 88] (H-[hCys](Ethyl(2-propionyloxy))T[dS][Dab][Dab][dF]L[Dab][Dab]T; lactam 4-C) | >64 µg/mL |  |  |  |  |  |  |  |  |  |  |  |  |  |  |
| CCCC(=O)OCCSC[C@@H](N)C(=O)N[C@H](C(=O)N[C@@H](CCN)C(=O)N[C@H]1CCNC(=O)[C@H]([C@@H](C)O)NC(=O)[C@H](CCN)NC(=O)[C@H](CCN)NC(=O)[C@H](CC(C)C)NC(=O)[C@@H](Cc2ccccc2)NC(=O)[C@H](CCN)NC1=O)[C@@H](C)O [Compound 89] (H-[dC](Ethyl(2-butanoyloxy))T[Dab][Dab][Dab][dF]L[Dab][Dab]T; lactam 4-C) |  | 4 µg/mL (≈ 3.39 µM) | 2 µg/mL (≈ 1.69 µM) | 1 µg/mL (≈ 0.847 µM) | 1 µg/mL (≈ 0.847 µM) | >32 µg/mL | 32 µg/mL (≈ 27.1 µM) |  |  |  |  |  |  |  |  |
| CCCCCCCC(=O)N[C@@H](CCN)C(=O)N[C@H](C(=O)N[C@@H](CCN)C(=O)N[C@H]1CCNC(=O)[C@H]([C@@H](C)O)NC(=O)[C@H](CCN)NC(=O)[C@H](CCN)NC(=O)[C@H](CC(C)C)NC(=O)[C@@H](Cc2ccccc2)NC(=O)[C@H](CCN)NC1=O)[C@@H](C)O [polymyxin B3, reference compound] (Octanoyl-[Dab]T[Dab][Dab][Dab][dF]L[Dab][Dab]T; lactam 4-C (inferred); N-terminus assumed) |  |  |  |  |  |  |  |  |  |  |  |  |  |  | 0.25 µg/mL |
